Results as given in patent US20050153967A1, “Pharmaceutical compositions comprising 2-(4-ethoxy-phenyl)-3-(4-methanesulfonyl-phenyl)-pyrazolo'1,5-bipyridazine in nanoparticulate form” (priority 2002, published 2005).

How the values were obtained:
[1] = Dissolution testing (in vitro prediction of bioavailability); type: physicochemical
Text: Dissolution testing is a well established technique for obtaining a correlation between in vitro and in vivo data in relation to compound bioavailability. […] As a result attempts were made to improve the bioavailability of compound (I). WO01/41760 (Pharmacia Corporation) discloses that the bioavailability of selective COX-2 inhibitory drugs of low water solubility may be enhanced by reducing the drug particle size, such that a substantial proportion are smaller than 1 μm.

cyclooxygenase-2 (COX-2) = biological target: T1, cyclooxygenase-2 (COX-2) (Homo sapiens, UniProt P35354); settings: cited from earlier work
T1 sequence (P35354 18-604): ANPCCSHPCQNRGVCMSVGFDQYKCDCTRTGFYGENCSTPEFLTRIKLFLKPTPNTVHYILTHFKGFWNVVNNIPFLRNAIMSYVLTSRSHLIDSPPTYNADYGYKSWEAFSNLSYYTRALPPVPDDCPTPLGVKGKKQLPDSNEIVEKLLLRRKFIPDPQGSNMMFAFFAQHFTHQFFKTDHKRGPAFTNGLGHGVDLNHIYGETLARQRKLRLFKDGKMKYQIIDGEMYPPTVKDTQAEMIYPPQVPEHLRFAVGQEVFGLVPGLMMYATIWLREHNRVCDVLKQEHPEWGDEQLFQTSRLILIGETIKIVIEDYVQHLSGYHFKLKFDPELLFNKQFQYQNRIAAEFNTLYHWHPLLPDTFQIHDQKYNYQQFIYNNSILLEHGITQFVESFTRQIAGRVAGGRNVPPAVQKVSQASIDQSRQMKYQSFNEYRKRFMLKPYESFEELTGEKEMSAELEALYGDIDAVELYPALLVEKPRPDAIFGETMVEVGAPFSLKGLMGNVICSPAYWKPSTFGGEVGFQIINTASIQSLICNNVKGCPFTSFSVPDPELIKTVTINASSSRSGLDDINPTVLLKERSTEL

CCOc1ccc(-c2nn3ncccc3c2-c2ccc(S(C)(=O)=O)cc2)cc1 [compound (I), 2-(4-ethoxy-phenyl)-3-(4-methanesulfonyl-phenyl)-pyrazolo[1,5-b]pyridazine]
dissolution, indicated bioavailability ([1]; co-formulation with HPMC-AS in an amorphous dispersion): enhanced | dissolution, predicted bioavailability ([1]; compound (I) in micronised form, preliminary dissolution experiments): poorly bioavailable | dissolution profile ([1]; pharmaceutical composition with compound (I) in nanoparticulate form): poor dissolution profile | inhibition of cyclooxygenase-2 (COX-2) (cyclooxygenase-2 (COX-2)): potent and selective inhibitor
